Experimental data as given in paper PMC9019904, “AD Informer Set: Chemical tools to facilitate Alzheimer's disease drug discovery” (Alzheimer's & Dementia : Translational Research & Clinical …, 2022).
Converted amounts (≈) assume the structure as drawn.

What was measured:
[1] = Kinetic solubility in aqueous buffer pH 7.4 by total chemiluminescent nitrogen determination (Analiza); settings: aqueous buffer, pH 7.4, aqueous buffer, kinetic from dmso stock
[2] = tested on: HMC3 (human microglia) cell line; test: pHrodo-myelin phagocytosis/cell viability high content imaging assay: phagocytosis signal; assay type: cell-based
Summary of the method: (§1)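 High content imaging, roughly 22 hours post pHrodo-myelin addition, recorded phagocytosis signal alongside viability in microglial lines BV2 (mouse) and HMC3 (human). Apoptosis tracked through intensity rise (early) and fall (later) among three extracted measurements.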

[3] = tested on: BV2 (mouse microglia) cell line; test: as above; assay type: cell-based
Summary of the method: as §1

[4] = tested on: BV2 (mouse microglia) cell line; test: pHrodo-myelin phagocytosis/cell viability high content imaging assay: viability (cell count, nuclear area, nuclear intensity)
Summary of the method: (§2)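 Viability was read by high-content imaging as cell count per well and nuclear intensity per cell, in murine BV2 and human HMC3 microglial lines. Cells received a single 10 μM compound dose for 48 h, including 20 h with pHrodo-myelin. Duplicate means are expressed as % of untreated control.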

[5] = tested on: HMC3 (human microglia) cell line; test: as above
Summary of the method: as §2

| SMILES | solubility kinetic [1] | further results |
| --- | --- | --- |
| CN(C)CCCn1c(N)c(-c2nc3ccccc3[nH]2)c2nc3ccccc3nc21 [INI-43] | 5.9 µM (≈ 2.27 µg/mL) | Inhibition of human microglial phagocytosis at 10 μM (<70% control) ([2]; 10 μM, HMC3): Y (The compound was found to inhibit phagocytosis (response threshold: <70% control) when human immortalized microglial cells were dosed at 10 μM (Y: yes)) |
| Clc1ccc(N/N=C(\c2ccccc2)c2ccccn2)nc1 [JIB-04] | 24.3 µM (≈ 7.5 µg/mL) | Stimulation of mouse microglial phagocytosis at 10 μM (>150% control) ([3]; 10 μM, BV2): Y (The compound was found to stimulate phagocytosis (response threshold: >150% control) when murine immortalized microglial cells were dosed at 10 μM (Y: yes)); Mouse microglial cytotoxicity at 10 μM (<70% control) ([4]; 10 μM, BV2): Y (The compound was found to be cytotoxic (cell count threshold: <70% control) when murine immortalized microglial cells were dosed at 10 μM (Y: yes)) |
| Cc1cc(NC(=O)Nc2ccc(F)c(F)c2)n(-c2ccccc2)n1 [ML 297] | 49.9 µM (≈ 16.4 µg/mL) | Stimulation of mouse microglial phagocytosis at 10 μM (>150% control) ([3]; 10 μM, BV2): Y (The compound was found to stimulate phagocytosis (response threshold: >150% control) when murine immortalized microglial cells were dosed at 10 μM (Y: yes)) |
| CNc1nc(C)nc(N[C@H]2CCC[C@@H](C(=O)NCc3ccc(C#N)cc3C(F)(F)F)C2)n1 [GSK2256294A] | 148 µM (≈ 66 µg/mL) | Inhibition of human microglial phagocytosis at 10 μM (<70% control) ([2]; HMC3, 10 μM): Y (The compound was found to inhibit phagocytosis (response threshold: <70% control) when human immortalized microglial cells were dosed at 10 μM (Y: yes)) |
| N#Cc1ccc(COC[C@H]2O[C@@H](n3c(NCc4ccc(Cl)c(Cl)c4)nc4c(N)ncnc43)[C@H](O)[C@@H]2O)cc1 [VER-155008] | 14.3 µM (≈ 7.96 µg/mL) | Stimulation of mouse microglial phagocytosis at 10 μM (>150% control) ([3]; 10 μM, BV2): Y (The compound was found to stimulate phagocytosis (response threshold: >150% control) when murine immortalized microglial cells were dosed at 10 μM (Y: yes)); Mouse microglial cytotoxicity at 10 μM (<70% control) ([4]; 10 μM, BV2): Y (The compound was found to be cytotoxic (cell count threshold: <70% control) when murine immortalized microglial cells were dosed at 10 μM (Y: yes)) |
| Cc1ccc(-n2nc(C(C)(C)C)cc2NC(=O)Nc2ccc(OCCN3CCOCC3)c3ccccc23)cc1 [Doramapimod (BIRB 796)] | 3.6 µM (≈ 1.9 µg/mL) | Stimulation of mouse microglial phagocytosis at 10 μM (>150% control) ([3]; 10 μM, BV2): Y (The compound was found to stimulate phagocytosis (response threshold: >150% control) when murine immortalized microglial cells were dosed at 10 μM (Y: yes)) |
| COc1cc(N2CCC(N3CCN(C)CC3)CC2)ccc1Nc1ncc(Cl)c(Nc2ccccc2P(C)(C)=O)n1 [Brigatinib] | 123 µM (≈ 72.1 µg/mL) | Stimulation of mouse microglial phagocytosis at 10 μM (>150% control) ([3]; BV2, 10 μM): Y (The compound was found to stimulate phagocytosis (response threshold: >150% control) when murine immortalized microglial cells were dosed at 10 μM (Y: yes)); Mouse microglial cytotoxicity at 10 μM (<70% control) ([4]; BV2, 10 μM): Y (The compound was found to be cytotoxic (cell count threshold: <70% control) when murine immortalized microglial cells were dosed at 10 μM (Y: yes)) |
| CCS(=O)(=O)N1CCN(c2ccc(Nc3ncc(C(N)=O)c(NC4CC4)n3)cc2)CC1 [Cerdulatinib] | 1.8 µM (≈ 0.802 µg/mL) | Inhibition of mouse microglial phagocytosis at 10 μM (<70% control) ([3]; BV2, 10 μM): Y (The compound was found to inhibit phagocytosis (response threshold: <70% control) when murine immortalized microglial cells were dosed at 10 μM (Y: yes)); Human microglial cytotoxicity at 10 μM (<70% control) ([5]; HMC3, 10 μM, cell count <70% control): Y (The compound was found to be cytotoxic (cell count threshold: <70% control) when human immortalized microglial cells were dosed at 10 μM (Y: yes)); Mouse microglial cytotoxicity at 10 μM (<70% control) ([4]; BV2, 10 μM, cell count <70% control): Y (The compound was found to be cytotoxic (cell count threshold: <70% control) when murine immortalized microglial cells were dosed at 10 μM (Y: yes)) |
| O=C(NC1CC1)C(=O)C(Cc1ccccc1)NC(=O)[C@H]1CCC(=O)N1Cc1ccccc1 (stereo partly shown) [ABT-957 (Alicapistat)] | 176 µM (≈ 76.5 µg/mL) | – |
| CC/C(=C(\c1ccc(O)cc1)c1ccc(OCCN(C)C)cc1)c1ccccc1 [Afimoxifene] | 19.5 µM (≈ 7.56 µg/mL) | Stimulation of mouse microglial phagocytosis at 10 μM (>150% control) ([3]; BV2, 10 μM): Y (The compound was found to stimulate phagocytosis (response threshold: >150% control) when murine immortalized microglial cells were dosed at 10 μM (Y: yes)) |
| CCn1c(=O)/c(=C2\Sc3ccccc3N2C)s/c1=C\c1ccccn1 [YM-08] | 4.6 µM (≈ 1.69 µg/mL) | – |
| O=C(NNc1nc2cc(F)ccc2n2cccc12)c1cnccn1 [SC144] | 2.7 µM (≈ 0.87 µg/mL) | Stimulation of mouse microglial phagocytosis at 10 μM (>150% control) ([3]; 10 μM, BV2): Y (The compound was found to stimulate phagocytosis (response threshold: >150% control) when murine immortalized microglial cells were dosed at 10 μM (Y: yes)); Mouse microglial cytotoxicity at 10 μM (<70% control) ([4]; 10 μM, BV2): Y (The compound was found to be cytotoxic (cell count threshold: <70% control) when murine immortalized microglial cells were dosed at 10 μM (Y: yes)) |
| Cc1cc(NC(=O)Nc2ccccc2)n(-c2ccccc2)n1 [CHEMBL86962 (VU0032230)] | 191 µM (≈ 55.9 µg/mL) | – |
| CC1(C)CCC(CN2CCN(c3ccc(C(=O)NS(=O)(=O)c4ccc(NCC5CCOCC5)c([N+](=O)[O-])c4)c(Oc4cnc5[nH]ccc5c4)c3)CC2)=C(c2ccc(Cl)cc2)C1 [Venetoclax (ABT-199)] | 6.3 µM (≈ 5.47 µg/mL) | Stimulation of mouse microglial phagocytosis at 10 μM (>150% control) ([3]; BV2, 10 μM): Y (The compound was found to stimulate phagocytosis (response threshold: >150% control) when murine immortalized microglial cells were dosed at 10 μM (Y: yes)) |
| CN(C)CC[C@H](CSc1ccccc1)Nc1ccc(S(=O)(=O)NC(=O)c2ccc(N3CCN(Cc4ccccc4-c4ccc(Cl)cc4)CC3)cc2)cc1[N+](=O)[O-] [ABT-737] | 0.9 µM (≈ 0.732 µg/mL) | – |
| C=CC[C@@H]1/C=C(\C)C[C@H](C)C[C@H](OC)[C@H]2O[C@@](O)(C(=O)C(=O)N3CCCC[C@H]3C(=O)O[C@H](/C(C)=C/[C@@H]3CC[C@@H](O)[C@H](OC)C3)[C@H](C)[C@@H](O)CC1=O)[C@H](C)C[C@@H]2OC [Tacrolimus] | 95.5 µM (≈ 76.8 µg/mL) | Stimulation of mouse microglial phagocytosis at 10 μM (>150% control) ([3]; 10 μM, BV2): Y (The compound was found to stimulate phagocytosis (response threshold: >150% control) when murine immortalized microglial cells were dosed at 10 μM (Y: yes)); Mouse microglial cytotoxicity at 10 μM (<70% control) ([4]; 10 μM, BV2): Y (The compound was found to be cytotoxic (cell count threshold: <70% control) when murine immortalized microglial cells were dosed at 10 μM (Y: yes)) |
| CCOC(=O)N1CCC(Nc2c(NCCN3CCN(c4cccc(C(F)(F)F)c4)CC3)c(=O)c2=O)CC1 [Squarunkin A] | 0.7 µM (≈ 0.366 µg/mL) | – |
| O=c1[nH]c(=O)n([C@H]2C[C@H](O)[C@@H](CO)O2)cc1/C=C/Br [RP101 (Brivudine)] | 199 µM (≈ 66.2 µg/mL) | – |
| Oc1cc(CNC(=S)/C=C/c2cc(O)c(O)c(Br)c2)cc(O)c1O [NT157] | 79.7 µM (≈ 32.9 µg/mL) | Stimulation of mouse microglial phagocytosis at 10 μM (>150% control) ([3]; 10 μM, BV2): Y (The compound was found to stimulate phagocytosis (response threshold: >150% control) when murine immortalized microglial cells were dosed at 10 μM (Y: yes)); Human microglial cytotoxicity at 10 μM (<70% control) ([5]; 10 μM, HMC3): Y (The compound was found to be cytotoxic (cell count threshold: <70% control) when human immortalized microglial cells were dosed at 10 μM (Y: yes)); Mouse microglial cytotoxicity at 10 μM (<70% control) ([4]; 10 μM, BV2): Y (The compound was found to be cytotoxic (cell count threshold: <70% control) when murine immortalized microglial cells were dosed at 10 μM (Y: yes)) |
| Cc1ccccc1C(=O)Nc1ccc(C(=O)N2CCCC(O)c3cc(Cl)ccc32)c(C)c1 (stereo not shown) [Tolvaptan] | 31.8 µM (≈ 14.3 µg/mL) | Stimulation of mouse microglial phagocytosis at 10 μM (>150% control) ([3]; BV2, 10 μM): Y (The compound was found to stimulate phagocytosis (response threshold: >150% control) when murine immortalized microglial cells were dosed at 10 μM (Y: yes)) |
| COc1cc(C(=O)NS(=O)(=O)c2ccccc2C)ccc1Cc1cn(C)c2ccc(NC(=O)OC3CCCC3)cc12 [Zafirlukast] | 129 µM (≈ 74.4 µg/mL) | – |
| Cc1ccccc1NC(=O)CN1C(=O)N/C(=C/c2ccccc2OCc2ccc(C(=O)O)cc2)C1=O [CHEMBL1416302] | 26.6 µM (≈ 12.9 µg/mL) | Stimulation of mouse microglial phagocytosis at 10 μM (>150% control) ([3]; BV2 cells, 10 μM): Y (The compound was found to stimulate phagocytosis (response threshold: >150% control) when murine immortalized microglial cells were dosed at 10 μM (Y: yes)) |
| Cl.O=C(O)Cc1cccc(OCCCN(Cc2cccc(C(F)(F)F)c2Cl)CC(c2ccccc2)c2ccccc2)c1 [GW 3965 HCl] | 4.1 µM | – |
| Cc1cccc(-c2nn3c(c2-c2ccnc4ccc(C(N)=O)cc24)CCC3)n1 [Galunisertib] | 249 µM (≈ 92.1 µg/mL) | Stimulation of mouse microglial phagocytosis at 10 μM (>150% control) ([3]; BV2, 10 μM): Y (The compound was found to stimulate phagocytosis (response threshold: >150% control) when murine immortalized microglial cells were dosed at 10 μM (Y: yes)) |
| Cc1cnc(Nc2ccc(F)cc2Cl)nc1-c1c[nH]c(C(=O)N[C@H](CO)c2cccc(Cl)c2)c1 [Vertex 11e] | 1.4 µM (≈ 0.701 µg/mL) | – |
| O=c1oc2ccccc2cc1-c1cn2cc(Cc3ccc(F)cc3)sc2n1 [iMDK] | < 1.1 µM | Mouse microglial cytotoxicity at 10 μM (<70% control) ([4]; 10 μM, BV2): Y (The compound was found to be cytotoxic (cell count threshold: <70% control) when murine immortalized microglial cells were dosed at 10 μM (Y: yes)) |
| O=C(O)c1cc2nc(-c3ccc(Cl)cc3)cc(C(F)(F)F)n2n1 [ZINC00184372] | 270 µM (≈ 92.2 µg/mL) | Stimulation of mouse microglial phagocytosis at 10 μM (>150% control) ([3]; 10 μM, BV2): Y (The compound was found to stimulate phagocytosis (response threshold: >150% control) when murine immortalized microglial cells were dosed at 10 μM (Y: yes)) |
| CC(C)(O)c1coc(S(=O)(=O)NC(=O)Nc2c3c(cc4c2CCC4)CCC3)c1 [MCC950] | 119 µM (≈ 48.2 µg/mL) | – |
